# Results reported in ChEMBL document CHEMBL4359931, “Synthesis, biological evaluation and molecular docking studies of new amides of 4-bromothiocolchicine as anticancer agents” (Bioorg Med Chem, 2019).
# Active and inactive are the calls of the source. No cut-off for these calls is given here.
# Columns and labels:
# Homo sapiens [1] = organism: Homo sapiens; assay: Induction of cell cycle arrest in human ALL5 cells assessed as increase in 4 N DNA at 5 times of antiproliferative IC50 incubated for 24 hrs by propidium iodide based flow cytometry; format: functional
# [2] = Selectivity index, ratio of IC50 of mouse BALB/3T3 cells to IC50 of human MCF7 cells; format: toxicity; details: BALB/3T3 cells versus MCF7 cells, read-out: Ratio IC50
# Homo sapiens [3] = organism: Homo sapiens; assay: Induction of cell death in human ALL5 cells assessed as decrease in 4 N DNA at 5 times of antiproliferative IC50 incubated for 72 hrs by propidium iodide based flow cytometry; format: functional
# Homo sapiens [4] = organism: Homo sapiens; assay: Induction of cell cycle arrest in human ALL5 cells assessed as increase in 4 N DNA at 5 times of antiproliferative IC50 incubated for 48 hrs by propidium iodide based flow cytometry; format: functional
# [5] = Selectivity index, ratio of IC50 of mouse BALB/3T3 cells to IC50 of human ALL5 cells
# MCF7 [6] = assay: Antiproliferative activity against human MCF7 cells assessed as reduction in cell viability incubated for 120 hrs by MTT assay; format: functional, cell-based; details: MCF7, 120 h
# LoVo = assay: Antiproliferative activity against human LoVo cells assessed as reduction in cell viability incubated for 120 hrs by MTT assay; format: functional, cell-based
# BALB/3T3 = assay: Antiproliferative activity against mouse BALB/3T3 cells assessed as reduction in cell viability incubated for 120 hrs by MTT assay; format: cell-based; details: BALB/3T3, 120 h
# [7] = Antiproliferative activity against human ALL5 cells assessed as reduction in cell viability incubated for 120 hrs by MTT assay; format: functional, cell-based; details: ALL5, 120 h
# [8] = Antiproliferative activity against human LoVo/DX cells assessed as reduction in cell viability incubated for 120 hrs by MTT assay; format: functional, cell-based
# A549 = assay: Antiproliferative activity against human A549 cells assessed as reduction in cell viability incubated for 120 hrs by MTT assay; format: functional, cell-based; details: A549, 120 h
# [9] = Selectivity index, ratio of IC50 of mouse BALB/3T3 cells to IC50 of human LoVo cells; format: toxicity; details: BALB/3T3 cells versus LoVo cells, read-out: Ratio IC50
# [10] = Resistance index, ratio of IC50 of human LoVo/DX cells to IC50 of human LoVo cells; format: functional
# [11] = Selectivity index, ratio of IC50 of mouse BALB/3T3 cells to IC50 of human LoVo/DX cells; format: toxicity; details: BALB/3T3 cells versus LoVo/DX cells, read-out: Ratio IC50
# [12] = Selectivity index, ratio of IC50 of mouse BALB/3T3 cells to IC50 of human A549 cells
# MCF7 [13] = assay: Cell cycle arrest in human MCF7 cells assessed as accumulation in G2 phase at 5 times of antiproliferative IC50 incubated for 48 hrs by propidium iodide based flow cytometry (reference value: 16 %); format: functional
# [14] = Cell cycle arrest in human ALL5 cells assessed as accumulation in subG1 phase at 5 times of antiproliferative IC50 incubated for 24 hrs by propidium iodide based flow cytometry (reference value: 10.5 %); format: functional
# MCF7 [15] = assay: Cell cycle arrest in human MCF7 cells assessed as accumulation in G2 phase at 5 times of antiproliferative IC50 incubated for 72 hrs by propidium iodide based flow cytometry (reference value: 18.6 %); format: functional
# [16] = Cell cycle arrest in human ALL5 cells assessed as accumulation in G1 phase at 5 times of antiproliferative IC50 incubated for 72 hrs by propidium iodide based flow cytometry (reference value: 59.7 %); format: functional
# MCF7 [17] = assay: Cell cycle arrest in human MCF7 cells assessed as accumulation in subG1 phase at 5 times of antiproliferative IC50 incubated for 24 hrs by propidium iodide based flow cytometry (reference value: 7.79 %); format: functional
# [18] = Cell cycle arrest in human ALL5 cells assessed as accumulation in S phase at 5 times of antiproliferative IC50 incubated for 72 hrs by propidium iodide based flow cytometry (reference value: 13.5 %); format: functional
# MCF7 [19] = assay: Cell cycle arrest in human MCF7 cells assessed as accumulation in G1 phase at 5 times of antiproliferative IC50 incubated for 24 hrs by propidium iodide based flow cytometry (reference value: 49.9 %); format: functional
# [20] = Cell cycle arrest in human ALL5 cells assessed as accumulation in S phase at 5 times of antiproliferative IC50 incubated for 24 hrs by propidium iodide based flow cytometry (reference value: […]); format: functional
# MCF7 [21] = assay: Cell cycle arrest in human MCF7 cells assessed as accumulation in G1 phase at 5 times of antiproliferative IC50 incubated for 72 hrs by propidium iodide based flow cytometry (reference value: 58 %); format: functional
# [22] = Cell cycle arrest in human ALL5 cells assessed as accumulation in G1 phase at 5 times of antiproliferative IC50 incubated for 24 hrs by propidium iodide based flow cytometry (reference value: 68.1 %); format: functional
# [23] = Cell cycle arrest in human ALL5 cells assessed as accumulation in subG1 phase at 5 times of antiproliferative IC50 incubated for 72 hrs by propidium iodide based flow cytometry (reference value: 15.5 %); format: functional
# MCF7 [24] = assay: Cell cycle arrest in human MCF7 cells assessed as accumulation in S phase at 5 times of antiproliferative IC50 incubated for 24 hrs by propidium iodide based flow cytometry (reference value: 19.9 %); format: functional
# MCF7 [25] = assay: Cell cycle arrest in human MCF7 cells assessed as accumulation in subG1 phase at 5 times of antiproliferative IC50 incubated for 72 hrs by propidium iodide based flow cytometry (reference value: 3.59 %); format: functional
# MCF7 [26] = assay: Cell cycle arrest in human MCF7 cells assessed as accumulation in G1 phase at 5 times of antiproliferative IC50 incubated for 48 hrs by propidium iodide based flow cytometry (reference value: 40.8 %); format: functional
# [27] = Cell cycle arrest in human ALL5 cells assessed as accumulation in subG1 phase at 5 times of antiproliferative IC50 incubated for 48 hrs by propidium iodide based flow cytometry (reference value: 11 %); format: functional
# MCF7 [28] = assay: Cell cycle arrest in human MCF7 cells assessed as accumulation in subG1 phase at 5 times of antiproliferative IC50 incubated for 48 hrs by propidium iodide based flow cytometry (reference value: 9.19 %); format: functional
# [29] = Cell cycle arrest in human ALL5 cells assessed as accumulation in S phase at 5 times of antiproliferative IC50 incubated for 48 hrs by propidium iodide based flow cytometry (reference value: 10.3 %); format: functional
# MCF7 [30] = assay: Cell cycle arrest in human MCF7 cells assessed as accumulation in S phase at 5 times of antiproliferative IC50 incubated for 72 hrs by propidium iodide based flow cytometry (reference value: 19.8 %); format: functional
# [31] = Cell cycle arrest in human ALL5 cells assessed as accumulation in G2 phase at 5 times of antiproliferative IC50 incubated for 72 hrs by propidium iodide based flow cytometry (reference value: 11.3 %); format: functional
# MCF7 [32] = assay: Cell cycle arrest in human MCF7 cells assessed as accumulation in S phase at 5 times of antiproliferative IC50 incubated for 48 hrs by propidium iodide based flow cytometry (reference value: 34 %); format: functional
# [33] = Cell cycle arrest in human ALL5 cells assessed as accumulation in G1 phase at 5 times of antiproliferative IC50 incubated for 48 hrs by propidium iodide based flow cytometry (reference value: 67.4 %); format: functional
# MCF7 [34] = assay: Cell cycle arrest in human MCF7 cells assessed as accumulation in G2 phase at 5 times of antiproliferative IC50 incubated for 24 hrs by propidium iodide based flow cytometry (reference value: 22.4 %); format: functional
# [35] = Cell cycle arrest in human ALL5 cells assessed as accumulation in G2 phase at 5 times of antiproliferative IC50 incubated for 24 hrs by propidium iodide based flow cytometry (reference value: 10.6 %); format: functional
# [36] = Cell cycle arrest in human ALL5 cells assessed as accumulation in G2 phase at 5 times of antiproliferative IC50 incubated for 48 hrs by propidium iodide based flow cytometry (reference value: 11.2 %); format: functional
SMILES,Activity (Homo sapiens [1]),selectivity ratio [2],Activity (Homo sapiens [3]),Activity (Homo sapiens [4]),Ratio IC50 [5],IC50 (MCF7 [6]) [µM],IC50 (LoVo) [µM],IC50 (BALB/3T3) [µM],IC50 [7] [µM],IC50 [8] [µM],IC50 (A549) [µM],selectivity ratio [9],Ratio IC50 [10],selectivity ratio [11],Ratio IC50 [12],Activity (MCF7 [13]) [%],Activity [14] [%],Activity (MCF7 [15]) [%],Activity [16] [%],Activity (MCF7 [17]) [%],other results
COc1c(Br)c2c(c(OC)c1OC)-c1ccc(SC)c(=O)cc1[C@@H](N)CC2,Active,7.1,Active,Active,13.8,0.178,0.125,1.26,0.0914,0.7,0.115,10.1,5.6,1.8,11,–,–,–,–,–,–
COc1c(Br)c2c(c(OC)c1OC)-c1ccc(OC)c(=O)cc1[C@@H](NC(C)=O)CC2,–,5.3,Active,Active,24.1,0.0266,0.0836,0.142,0.0059,1.55,0.104,1.7,18.7,0.1,1.4,60.8,17.1,56.1,26.9,7.37,Activity [18]: 22.2%; Activity (MCF7 [19]): 9.79%; Activity [20]: 14.8%; Activity (MCF7 [21]): 13.2%; Activity [22]: 51.2%; Activity [23]: 39.7%; Activity (MCF7 [24]): 7.97%; Activity (MCF7 [25]): 16.4%; Activity (MCF7 [26]): 12.5%; Activity [27]: 26.4%; Activity (MCF7 [28]): 12.1%; Activity [29]: 20%; Activity (MCF7 [30]): 14.3%; Activity [31]: 11.2%; Activity (MCF7 [32]): 14.6%; Activity [33]: 35%; Activity (MCF7 [34]): 74.9%; Activity [35]: 16.9%; Activity [36]: 18.6%
COc1c(Br)c2c(c(OC)c1OC)-c1ccc(SC)c(=O)cc1[C@@H](NC(=O)c1ccccc1)CC2,Active,1.5,Active,–,3,0.0114,0.0066,0.0174,0.0058,0.0479,0.0096,2.6,7.3,0.4,1.8,68.3,16.5,61.6,22.1,6.17,Activity [18]: 19.7%; Activity (MCF7 [19]): 11%; Activity [20]: 14.7%; Activity (MCF7 [21]): 13%; Activity [22]: 52%; Activity [23]: 50.6%; Activity (MCF7 [24]): 7.85%; Activity (MCF7 [25]): 15.6%; Activity (MCF7 [26]): 14.3%; Activity [27]: 24.7%; Activity (MCF7 [28]): 10%; Activity [29]: 16%; Activity (MCF7 [30]): 9.81%; Activity [31]: 7.51%; Activity (MCF7 [32]): 7.39%; Activity [33]: 33.8%; Activity (MCF7 [34]): 75%; Activity [35]: 16.9%; Activity [36]: 25.4%
CCN(CC)C(=O)N[C@H]1CCc2c(Br)c(OC)c(OC)c(OC)c2-c2ccc(SC)c(=O)cc21,–,0.8,–,–,1.5,0.0973,0.0538,0.0804,0.0553,0.621,0.0991,1.5,11.6,0.1,0.8,–,–,–,–,–,–
COc1c(Br)c2c(c(OC)c1OC)-c1ccc(SC)c(=O)cc1[C@@H](NC(=O)CCCCl)CC2,Active,1.3,Active,Active,4.6,0.0489,0.012,0.0641,0.014,0.266,0.0534,5.3,22.2,0.2,1.2,–,–,–,–,–,–
COc1c(Br)c2c(c(OC)c1OC)-c1ccc(SC)c(=O)cc1[C@@H](NC(C)=O)CC2,Active,7,Active,–,19.1,0.0148,0.0136,0.103,0.0054,0.135,0.0101,7.6,9.6,0.8,10.2,66,14.3,64.5,28.8,7.93,Activity [18]: 24.2%; Activity (MCF7 [19]): 13%; Activity [20]: 14.8%; Activity (MCF7 [21]): 15.5%; Activity [22]: 53.2%; Activity [23]: 37.2%; Activity (MCF7 [24]): 6.62%; Activity (MCF7 [25]): 13.1%; Activity (MCF7 [26]): 14.6%; Activity [27]: 30.5%; Activity (MCF7 [28]): 12%; Activity [29]: 19.4%; Activity (MCF7 [30]): 6.88%; Activity [31]: 9.83%; Activity (MCF7 [32]): 7.31%; Activity [33]: 33.4%; Activity (MCF7 [34]): 72.4%; Activity [35]: 17.7%; Activity [36]: 16.6%
CCCCCCCCCC(=O)N[C@H]1CCc2c(Br)c(OC)c(OC)c(OC)c2-c2ccc(SC)c(=O)cc21,–,0.1,–,–,0.5,0.957,0.482,0.0984,0.196,0.867,0.881,0.2,1.8,0.1,0.1,–,–,–,–,–,–
